Target: T1, human M4 muscarinic acetylcholine receptor (Homo sapiens, UniProt P08173)
T1 construct: expressed in transfected cells; host or cells: CHO-K1
T1 sequence (P08173 1-479): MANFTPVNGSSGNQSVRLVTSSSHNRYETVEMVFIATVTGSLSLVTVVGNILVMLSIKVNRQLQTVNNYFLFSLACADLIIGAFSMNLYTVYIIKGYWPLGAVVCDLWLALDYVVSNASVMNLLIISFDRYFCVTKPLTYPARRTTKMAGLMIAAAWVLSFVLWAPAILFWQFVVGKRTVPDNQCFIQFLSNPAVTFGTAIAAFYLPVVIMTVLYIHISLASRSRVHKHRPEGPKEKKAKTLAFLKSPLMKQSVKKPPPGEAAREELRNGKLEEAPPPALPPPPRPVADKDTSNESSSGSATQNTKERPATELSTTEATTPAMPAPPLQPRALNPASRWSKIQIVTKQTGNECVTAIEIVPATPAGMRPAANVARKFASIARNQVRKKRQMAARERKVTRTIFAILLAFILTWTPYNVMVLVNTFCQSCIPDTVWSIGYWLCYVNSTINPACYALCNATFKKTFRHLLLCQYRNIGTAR
Test: human FLIPR-based M4 PAM assay (CHO-K1 cells with human M4 receptor and Gαqi5, calcium dye fluorescence, acetylcholine at 20% of maximum response)
Format: cell-based
Conditions: inflection point (IP) of 4 parameter logistic dose response curve, human M4 receptor + Gαqi5, FLIPR Tetra
Description: In a typical experiment the M4 muscarinic acetylcholine receptor modulating activity of the compounds of the present invention was determined in accordance with the following experimental method. CHO-K1 cells stably transfected with human M4 receptor and chimeric G-protein Gαqi5 (Coward P, et al., Analytical Biochemistry, 270:242-248 (1999)) are thawed from liquid N2 storage, resuspended in growth medium, plated in black, clear bottom 384 well plates, and incubated 16-20 hours at 37° C., 5% CO2. On the day of assay, growth medium is removed, the cells are washed 2 times with wash buffer, and cells are incubated in dye loading buffer at 37° C., 5% CO2 for ˜1 hour. Following dye loading the cell plates are placed in a FLIPR Tetra instrument and while monitoring dye fluorescence (excitation […]), 10 uL of test substance at increasing concentrations is added, and fluorescence values are recorded for 4 min. Next, 10 uL of acetylcholine is added (final concentration calculated so as to achieve 20% of the maximum acetycholine response), and the fluorescence reading is continued for 3.5 min. In some cases, a third addition of acetylcholine (final concentration calculated to achieve 70% of the maximal acetylcholine response) is performed. The resulting dose response curves are fit to a 4 parameter logistic equation and the final result is determined as the inflection point (IP) of the curve
CHO-K1 cells stably transfected with human M4 receptor and chimeric G-protein Gαqi5 are thawed from liquid N2 storage, resuspended in growth medium, plated in black, clear bottom 384 well plates, and incubated 16-20 hours at 37° C., 5% CO2.
On the day of assay, growth medium is removed, the cells are washed 2 times with wash buffer, and cells are incubated in dye loading buffer at 37° C., 5% CO2 for ˜1 h. Following dye loading the cell plates are placed in a FLIPR Tetra instrument and while monitoring dye fluorescence ([…]), 10 uL of test substance at increasing concentrations is added, and fluorescence values are recorded for 4 min. Next, 10 uL of acetylcholine is added (final concentration calculated so as to achieve 20% of the maximum acetycholine response), and the fluorescence reading is continued for 3.5 min. In some cases, a third addition of acetylcholine (final concentration calculated to achieve 70% of the maximal acetylcholine response) is performed.

SMILES	EC50 [nM]
Cc1cc2c(=O)[nH]n(C)c2nc1N1CCC(Oc2ccc3cn[nH]c3c2)CC1 [Example 27, 6-(4-((1H-indazol-6-yl)oxy)piperidin-1-yl)-1,5-dimethyl-1,2-dihydro-3H-pyrazolo[3,4-b]pyridin-3-one]	71
COc1ccc(OC2CCN(c3nc4nccn4c(Cl)c3C)CC2)cn1 [Example 28, 5-chloro-7-(4-((6-methoxypyridin-3-yl)oxy)piperidin-1-yl)-6-methylimidazo[1,2-a]pyrimidine]	589
COc1ccc(OC2CCN(c3nc4c(cc3C)C(=O)OC4(C)C)CC2)cn1 [Example 30, 2-(4-((6-methoxypyridin-3-yl)oxy)piperidin-1-yl)-3,7,7-trimethylfuro[3,4-b]pyridin-5(7H)-one]	856
Cc1cc2c(nc1N1CCC(Oc3ccccc3)CC1)COC2=O [Example 31, 3-methyl-2-(4-phenoxypiperidin-1-yl)furo[3,4-b]pyridin-5(7H)-one]	17
Cc1cc2c(nc1N1CCC(Oc3cccc(C#N)c3)CC1)COC2=O [Example 32, 3-((1-(3-methyl-5-oxo-5,7-dihydrofuro[3,4-b]pyridin-2-yl)piperidin-4-yl)oxy)benzonitrile]	14
COc1ccc(OC2CCN(c3nc4c(cc3C)C(=O)OC4CO)CC2)cn1 (stereo not drawn) [Example 33, 7-(Hydroxymethyl)-2-(4-((6-methoxypyridin-3-yl)oxy)piperidin-1-yl)-3-methylfuro[3,4-b]pyridin-5(7H)-one]	34
COc1ccc(OC2CCN(c3nc4c(cc3C)CNC4)CC2)cn1 [Example 34, 2-(4-((6-Methoxypyridin-3-yl)oxy)piperidin-1-yl)-3-methyl-6,7-dihydro-5H-pyrrolo[3,4-b]pyridine]	349
Cc1cc2c(nc1N1CCC(Oc3ccccc3)CC1)CNC2 [Example 35, 3-methyl-2-(4-phenoxypiperidin-1-yl)-6,7-dihydro-5H-pyrrolo[3,4-b]pyridine]	76
COc1ccc(OC2CCN(c3nc4c(cc3C)CN(Cc3ccncc3)C4=O)CC2)cn1 [Example 36, 2-(4-((6-Methoxypyridin-3-yl)oxy)piperidin-1-yl)-3-methyl-6-(pyridin-4-ylmethyl)-5,6-dihydro-7H-pyrrolo[3,4-b]pyridin-7-one]	672
COc1ccc(OC2CCN(c3nc4c(cc3C)CN(CCO)C4)CC2)cn1 [Example 37, 2-(2-(4-((6-methoxypyridin-3-yl)oxy)piperidin-1-yl)-3-methyl-5,7-dihydro-6H-pyrrolo[3,4-b]pyridin-6-yl)ethan-1-ol]	133
COc1ccc(OC2CCN(c3nc4c(cnn4C)cc3C)CC2)cn1 [Example 38, 6-(4-((6-methoxypyridin-3-yl)oxy)piperidin-1-yl)-1,5-dimethyl-1H-pyrazolo[3,4-b]pyridine]	397
COc1ccc(OC2CCN(c3nc4c(cc3C)CN(C(=O)CCO)C4)CC2)cn1 [Example 39, 3-Hydroxy-1-(2-(4-((6-methoxypyridin-3-yl)oxy)piperidin-1-yl)-3-methyl-5,7-dihydro-6H-pyrrolo[3,4-b]pyridin-6-yl)propan-1-one]	77
COc1ccc(OC2CCN(c3nc4c(cc3C)CN(C(C)=O)C4)CC2)cn1 [Example 40, 1-(2-(4-((6-methoxypyridin-3-yl)oxy)piperidin-1-yl)-3-methyl-5,7-dihydro-6H-pyrrolo[3,4-b]pyridin-6-yl)ethan-1-one]	162
COc1ccc(OC2CCN(c3nc4c(cc3C)CN(C(=O)C3CC3)C4)CC2)cn1 [Example 41, cyclopropyl(2-(4-((6-methoxypyridin-3-yl)oxy)piperidin-1-yl)-3-methyl-5,7-dihydro-6H-pyrrolo[3,4-b]pyridin-6-yl)methanone]	153
COc1ccc(OC2CCN(c3nc4c(cc3C)CN(C(=O)C3(C)COC3)C4)CC2)cn1 [Example 42, (2-(4-((6-methoxypyridin-3-yl)oxy)piperidin-1-yl)-3-methyl-5,7-dihydro-6H-pyrrolo[3,4-b]pyridin-6-yl)(3-methyloxetan-3-yl)methanone]	200
CCOC(=O)N1Cc2cc(C)c(N3CCC(Oc4ccc(OC)nc4)CC3)nc2C1 [Example 43, ethyl 2-(4-((6-methoxypyridin-3-yl)oxy)piperidin-1-yl)-3-methyl-5,7-dihydro-6H-pyrrolo[3,4-b]pyridine-6-carboxylate]	157
COc1ccc(OC2CCN(c3nc4c(cc3C)CN(C(=O)C3(C)CCCC3)C4)CC2)cn1 [Example 44, (2-(4-((6-methoxypyridin-3-yl)oxy)piperidin-1-yl)-3-methyl-5,7-dihydro-6H-pyrrolo[3,4-b]pyridin-6-yl)(1-methylcyclopentyl)methanone]	489
COc1ccc(OC2CCN(c3nc4c(cc3C)CN(C(=O)C(C)(C)C)C4)CC2)cn1 [Example 45, 1-(2-(4-((6-methoxypyridin-3-yl)oxy)piperidin-1-yl)-3-methyl-5,7-dihydro-6H-pyrrolo[3,4-b]pyridin-6-yl)-2,2-dimethylpropan-1-one]	235
COc1ccc(OC2CCN(c3nc4c(cc3C)CN(C(=O)C3CCCC3)C4)CC2)cn1 [Example 46, cyclopentyl(2-(4-((6-methoxypyridin-3-yl)oxy)piperidin-1-yl)-3-methyl-5,7-dihydro-6H-pyrrolo[3,4-b]pyridin-6-yl)methanone]	306
Cc1cc2c(nc1N1CCC(Oc3ccccc3)CC1)CN(C(=O)C1CC1)C2 [Example 47, cyclopropyl(3-methyl-2-(4-phenoxypiperidin-1-yl)-5,7-dihydro-6H-pyrrolo[3,4-b]pyridin-6-yl)methanone]	113
COc1ccc(OC2CCN(c3nc4c(cc3C)CN(C(=O)C3CCO3)C4)CC2)cn1 (stereo not drawn) [Example 48, (2-(4-((6-methoxypyridin-3-yl)oxy)piperidin-1-yl)-3-methyl-5,7-dihydro-6H-pyrrolo[3,4-b]pyridin-6-yl)(oxetan-2-yl)methanone]	167
COc1ccc(OC2CCN(c3nc4c(cc3C)CN(C(=O)C3CC(F)(F)C3)C4)CC2)cn1 [Example 49, (3,3-difluorocyclobutyl)(2-(4-((6-methoxypyridin-3-yl)oxy)piperidin-1-yl)-3-methyl-5,7-dihydro-6H-pyrrolo[3,4-b]pyridin-6-yl)methanone]	126
COc1ccc(OC2CCN(c3nc4c(cc3C)CN(C(=O)c3ccc[nH]3)C4)CC2)cn1 [Example 50, (2-(4-((6-methoxypyridin-3-yl)oxy)piperidin-1-yl)-3-methyl-5,7-dihydro-6H-pyrrolo[3,4-b]pyridin-6-yl)(1H-pyrrol-2-yl)methanone]	481
COc1ccc(OC2CCN(c3nc4c(cc3C)CN(C(=O)[C@H](C)O)C4)CC2)cn1 [Example 51, (S)-2-hydroxy-1-(2-(4-((6-methoxypyridin-3-yl)oxy)piperidin-1-yl)-3-methyl-5,7-dihydro-6H-pyrrolo[3,4-b]pyridin-6-yl)propan-1-one]	109
COc1ccc(OC2CCN(c3nc4c(cc3C)CN(C(=O)C3CN(C)C3)C4)CC2)cn1 [Example 52, (2-(4-((6-methoxypyridin-3-yl)oxy)piperidin-1-yl)-3-methyl-5,7-dihydro-6H-pyrrolo[3,4-b]pyridin-6-yl)(1-methylazetidin-3-yl)methanone]	453
COc1ccc(OC2CCN(c3nc4c(cc3C)CN(C(=O)CCN(C)C)C4)CC2)cn1 [Example 53, 3-(dimethylamino)-1-(2-(4-((6-methoxypyridin-3-yl)oxy)piperidin-1-yl)-3-methyl-5,7-dihydro-6H-pyrrolo[3,4-b]pyridin-6-yl)propan-1-one]	502
COc1ccc(OC2CCN(c3nc4c(cc3C)CN(C(=O)CN(C)C)C4)CC2)cn1 [Example 54, 2-(dimethylamino)-1-(2-(4-((6-methoxypyridin-3-yl)oxy)piperidin-1-yl)-3-methyl-5,7-dihydro-6H-pyrrolo[3,4-b]pyridin-6-yl)ethan-1-one]	238
